The text below walks through data of patent US7858613B2, “Substituted benzo-condensed cycloheptanone derivatives and their use for producing drugs” (Gruenenthal GmbH, priority 2005, dated 2010).

In one assay the target is T1, human CB1 receptor (Homo sapiens, UniProt P21554).
T1 construct: purchased Perkin Elmer RBHCB1M
Nature of the assay: Study on the human CB1 receptor, [3H]CP55,940 displacement on recombinant membranes. The class given is binding. The settings on record: 10 μM test substance; 1 nM [3H]CP55,940; human recombinant cell membranes. Here is the method: V. Functional Study on the Human CB1 Receptor
50 mM TRIS (from Fluka, Cat. No. 93349); 2.5 mM EDTA (from Fluka Cat. No. 03680); 5 mM MgCl2 (from Merck, Cat. No. 1.05833); 0.5 mg/ml BSA (from Sigma Cat. No. A-2153)
The membranes (RBHCB1M, from Perkin Elmer (human recombinant cell membranes)) were supplied in aliquots of 1 ml each in dry ice and stored at −80° C. The protein concentration of the batches was around 6 mg/ml. For the test, in each case 1 ml was thawed rapidly and diluted with 7 ml of incubation buffer (1:8). 20 μl of this dilution were used in the test. This corresponded to a protein content of approx. 15 μg in the batch.
MTP from Costar® of the “U type” (assay MTP; Cat. No. 3794) was used. The pipetting sequence is reproduced in Table 1 below.
After the pipetting operation had ended, a lid was placed on the MTP and the incubation was effected at 25° C. for 90 min.
Subsequently, the samples were removed by suction with the aid of a Brandel cell harvester (model MPXRI-96T) through a GF/B Unifilter MTP (from Packard, Cat. No. 6005177) presoftened with 0.05% PEI. The samples were washed twice with 200 ml of ice-cooled incubation buffer per 96-well MTP. Thereafter, the plate was dried in a drying cabinet +60° C. for 1 h. […] After a wait time of 1 h, the plate was analyzed on a “Trilux” from Wallac.

A further assay deals with T2, human CB2 receptor (Homo sapiens, UniProt P34972).
T2 construct: expressed in transfected cells; host or cells: HEK-293EBNA cells (membranes)
Nature of the assay: Affinity for cannabinoid receptor CB2, [3H]-CP 55,940 displacement on HEK-293EBNA membranes. As to conditions: 10 μM test substance; 0.33 nM [3H]-CP 55,940; percent inhibition of specific binding. From the text: VI. Determination of the Affinity for the Cannabinoid Receptor CB2 (CB2 Receptor):
To determine the affinity of the inventive compounds for the cannabinoid receptor, membranes from human recombinant HEK-293EBNA cells were used, which had been transfected stably with the human CB2 receptor. The radioligand used was tritium-labeled 5-(1,1-dimethylheptyl)-2-(5-hydroxypropyl)cyclohexyl)-1-alpha,2-beta,5-alpha)phenol ([3]H—CP 55,940 with 103.4 Ci/mmol, 1 mCi/ml). The determination was effected in a test buffer composed of 50 mM Tris-HCl, 2.5 mM EDTA, 5 mM MgCl2 and 1.0 mg/ml of fatty acid-free BSA. The test substances were each dissolved in DMSO.
The affinity of the inventive compounds for the CB2 receptor is determined by their ability to displace [3]H—CP 55,940 from CB2 receptors in membranes from HEK-293EBNA cells. To this end, in each case 8 μg of the membranes (20 μl of a solution from membranes in a concentration of 400 μg/ml) are incubated in wells on a microtiter plate with a 0.33 nM solution of ^[3]H-CP […] (120 Ci/mmol) in a total volume of test buffer of 200 μl at 30° C. for 90 minutes.
Subsequently, either the test substances or WIN 55212-2 to determine the unspecific binding, in each case dissolved in DMSO, are added to the wells so as to result in each case in a concentration of the corresponding substances of 10 μM.
Incubation at 30° C. is continued for a further 40 minutes. The binding reaction was ended by rapid filtration through GF/C filter paper which had been treated with 0.05% PEI using a Brandel cell harvester with 96 wells. The filters are washed nine times with 0.5 ml of ice-cooled washing buffer ([…] Tris-HCl, 5 mM MgCl2, 2.5 mM EDTA, 2% BSA, pH 7.4), air-dried and placed in scintillation fluid, and the radioactivity is determined with the aid of a scintillation counter.
The percentage displacement of the radioactive ligand ^[3]H-CP 55,940 from its binding to the CB2 receptor is reported as percent inhibition of the specific binding.

The target of the next assay is T3, vanilloid receptor (VR1) (Homo sapiens, UniProt Q8NER1).
T3 construct: expressed in transfected cells; host or cells: CHO K1 cells (ECACC)
Briefly: Functional study on vanilloid receptor (VR1), FLIPR Ca2+ assay in VR1-transfected CHO K1 cells. In kind it is cell-based. The settings on record: test substance 10 μM; CHO K1 cells transfected with VR1; suppression of Ca2+ current after 100 nM capsaicin; read-out: VR1 (human) (% inhibition compared to 10 μM CP). The source says:
II. Functional Studies on the Vanilloid Receptor (VR1)
The agonistic or antagonistic action of the substances to be tested on vanilloid receptor (VR1) can also be determined with the assay which follows. In this assay, the Ca^2+ current through the channel is quantified with the aid of a Ca^2+-sensitive dye (Fluo-4 type, Molecular Probes, Europe BV, Leiden, the Netherlands) in a fluorescent imaging plate reader (FLIPR, Molecular Devices, Sunnyvale, USA).
Chinese hamster ovary cells (CHO K1 cells, European Collection of Cell Cultures (ECACC) Great Britain) are transfected stably with the VR1 gene. For functional studies, these cells are plated out onto poly-D-lysine-coated black 96-well plates with a clear bottom (BD Biosciences, Heidelberg, Germany) in a density of 25 000 cells/well. The cells are incubated overnight at 37° C. and 5% CO2 in a culture medium (Ham's Nutrient Mixture F12, 10% by volume of FCS (fetal calf serum), 18 μg/ml of L-proline). The next day, the cells are incubated with Fluo-4 (Fluo-4 2 μM, Pluronic F127 0.01% by volume, Molecular Probes in HBSS (Hank's buffered saline solution), Gibco Invitrogen GmbH, Karlsruhe, Germany) at 37° C. for 30 minutes. Subsequently, the plates are washed 3 times with HBSS buffer and, after a further incubation of 15 minutes at room temperature, used for Ca^2+ measurement in FLIPR. The Ca^2+-dependent fluorescence is measured before and after addition of the substances to be studied (wavelength λex=488 nm, λem=540 nm). The quantification is effected by measuring the highest fluorescence intensity (FC, fluorescence counts) over the time.
The FLIPR protocol consists of 2 substance additions. First, the substances to be tested (10 μM) are pipetted onto the cells and the Ca^2+ current is compared with the control (capsaicin 10 μM) (% activation based on the Ca^2+ signal after addition of 10 μM capsaicin). After incubation for 5 minutes, 100 nM capsaicin is applied and the current of Ca^2+ is likewise determined.
Desensitizing agonists and antagonists led to a suppression of the Ca^2+ current. % inhibition is calculated compared to the maximum achievable inhibition with 10 μM capsazepine.

Assay [1] concerns the target T4, vanilloid receptor 1 (VR1/TRPV1) (Rattus norvegicus, UniProt O35433).
T4 construct: The spinal column is removed from beheaded rats; from tissue; host or cells: primary cells from rat dorsal root ganglia
Briefly: Functional study on vanilloid receptor 1 (VR1/TRPV1), FLIPR Ca2+ assay in rat dorsal root ganglia cells. As to conditions: test compound 10 μM; rat DRG cells; suppression of Ca2+ current after 100 nM capsaicin; read-out: VR1 (rat) (% inhibition compared to 10 μM CP). In kind it is cell-based. Here is the method: Preference may likewise be given to inventive compounds which, in the FLIPR assay, in a concentration of 10 μM, have an inhibition of the Ca^2+ ion current in dorsal root ganglia of rats of at least 10%, preferably of at least 30%, more preferably of at least 50%, even more preferably of at least 70%, even more preferably of at least 90%, compared to the maximum achievable inhibition of the Ca^2+ ion current with […] in a concentration of 10 μM.
In the FLIPR assay, the Ca^2+ current is quantified with the aid of a Ca^2+-sensitive dye (Fluo-4 type, Molecular Probes Europe BV, Leiden, the Netherlands) in the fluorescent imaging plate reader (FLIPR, Molecular Devices, Sunnyvale, USA), as described below.
I. Functional Study on the Vanilloid Receptor 1 (VR1/TRPV1 Receptor)
The agonistic or antagonistic action of the substances to be studied on the vanilloid receptor 1 (VR1/TRPV1) of the rat species can be determined with the following assay. In this assay, the Ca^2+ current through the receptor channel is quantified with the aid of a Ca^2+-sensitive dye (Fluo-4 type, Molecular Probes Europe BV, Leiden the Netherlands) in a fluorescent imaging plate reader (FLIPR, Molecular Devices, Sunnyvale, USA).
Cell culture plate: poly-D-lysine-coated, black 96-hole plates with a clear bottom (96 well black/clear plate, BD Biosciences, Heidelberg, Germany) are additionally coated with laminin (Gibco Invitrogen GmbH, Karlsruhe, Germany) by diluting laminin to a concentration of 100 μg/ml with PBS (Ca—Mg-free PBS, Gibco Invitrogen GmbH, Karlsruhe, Germany). Aliquots having a concentration of 100 μg/ml of laminin are withdrawn and stored at −20° C. The aliquots are diluted with PBS in a ratio of 1:10 to 10 μg/ml of laminin and in each case 50 μl of the solution are pipetted into a well of the cell culture plate. The cell culture plates are incubated at 37° C. for at least two hours, the supernatant solution is removed by suction and the wells are each washed twice with PBS. The coated cell culture plates are stored with supernatant PBS which is not removed until directly before the application of the cells.
The spinal column is removed from beheaded rats and placed directly into cold HBSS buffer (Hank's buffered saline solution, Gibco Invitrogen GmbH, Karlsruhe, Germany), i.e. placed in an ice bath, which has been admixed with 1% by volume of an AA solution (antibiotic/antimycotic solution, PAA, Pasching, Austria). The spinal column is severed longitudinally and removed from the spinal canal together with fasciae. Subsequently, the dorsal root ganglia (DRGs) are removed and in turn stored in cold HBSS buffer admixed with 1% by volume of an AA solution. The DRGs freed completely of blood residues and spinal nerves are in each case transferred to 500 μl of cold type 2 collagenase (PAA, Pasching, Austria) and incubated at 37° C. for 35 minutes. After addition of 2.5% by volume of trypsin (PAA, Pasching, Austria), incubation is continued at 37° C. for a further 10 minutes. After complete incubation, the enzyme solution is cautiously pipetted off and the remaining DRGs are each admixed with 500 μl of complete medium.
The DRGs are each suspended repeatedly, drawn through cannulas No. 1, No. 12 and No. 16 by means of a syringe and transferred to 50 ml Falcon tubes which are made up to 15 ml with complete medium. The contents of each Falcon tube are in each case filtered through a 70 μm Falcon filter insert and centrifuged at 1200 revolutions and room temperature for 10 minutes. The resulting pellet is in each case taken up in 250 μl of complete medium and the cell count is determined.
The number of cells in the suspension is adjusted to 3 times 10^5 per ml and in each case 150 μl of this suspension are added to one well of the cell culture plates coated as described above. In the incubator, the plates are left to stand at 37° C., 5% by volume of CO2 and 95% relative air humidity for two to three days. […]

T2 sequence (P34972 whole entry): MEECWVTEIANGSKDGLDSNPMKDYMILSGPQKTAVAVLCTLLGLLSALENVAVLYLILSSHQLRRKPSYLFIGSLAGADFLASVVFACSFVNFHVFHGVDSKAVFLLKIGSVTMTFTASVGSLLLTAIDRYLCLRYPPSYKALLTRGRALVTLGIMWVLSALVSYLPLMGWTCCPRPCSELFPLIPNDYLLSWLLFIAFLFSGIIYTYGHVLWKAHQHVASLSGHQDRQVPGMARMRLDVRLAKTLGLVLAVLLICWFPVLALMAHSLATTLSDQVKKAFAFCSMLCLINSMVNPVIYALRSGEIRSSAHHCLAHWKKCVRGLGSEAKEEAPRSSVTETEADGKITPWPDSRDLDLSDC
T1 sequence (P21554 whole entry): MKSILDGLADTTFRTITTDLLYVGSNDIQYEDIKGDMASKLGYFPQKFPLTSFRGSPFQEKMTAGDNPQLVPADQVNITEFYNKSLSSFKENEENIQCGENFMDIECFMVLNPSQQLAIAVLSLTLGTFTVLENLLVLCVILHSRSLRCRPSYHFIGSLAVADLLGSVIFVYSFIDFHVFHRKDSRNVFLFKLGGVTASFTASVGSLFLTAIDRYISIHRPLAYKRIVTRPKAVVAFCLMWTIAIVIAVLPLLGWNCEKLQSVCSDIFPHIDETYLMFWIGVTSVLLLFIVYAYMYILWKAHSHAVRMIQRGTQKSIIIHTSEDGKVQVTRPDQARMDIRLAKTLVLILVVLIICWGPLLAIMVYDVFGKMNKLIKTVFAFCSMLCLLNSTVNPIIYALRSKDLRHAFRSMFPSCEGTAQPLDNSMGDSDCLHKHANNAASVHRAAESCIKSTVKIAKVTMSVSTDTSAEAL
T3 sequence (Q8NER1 whole entry): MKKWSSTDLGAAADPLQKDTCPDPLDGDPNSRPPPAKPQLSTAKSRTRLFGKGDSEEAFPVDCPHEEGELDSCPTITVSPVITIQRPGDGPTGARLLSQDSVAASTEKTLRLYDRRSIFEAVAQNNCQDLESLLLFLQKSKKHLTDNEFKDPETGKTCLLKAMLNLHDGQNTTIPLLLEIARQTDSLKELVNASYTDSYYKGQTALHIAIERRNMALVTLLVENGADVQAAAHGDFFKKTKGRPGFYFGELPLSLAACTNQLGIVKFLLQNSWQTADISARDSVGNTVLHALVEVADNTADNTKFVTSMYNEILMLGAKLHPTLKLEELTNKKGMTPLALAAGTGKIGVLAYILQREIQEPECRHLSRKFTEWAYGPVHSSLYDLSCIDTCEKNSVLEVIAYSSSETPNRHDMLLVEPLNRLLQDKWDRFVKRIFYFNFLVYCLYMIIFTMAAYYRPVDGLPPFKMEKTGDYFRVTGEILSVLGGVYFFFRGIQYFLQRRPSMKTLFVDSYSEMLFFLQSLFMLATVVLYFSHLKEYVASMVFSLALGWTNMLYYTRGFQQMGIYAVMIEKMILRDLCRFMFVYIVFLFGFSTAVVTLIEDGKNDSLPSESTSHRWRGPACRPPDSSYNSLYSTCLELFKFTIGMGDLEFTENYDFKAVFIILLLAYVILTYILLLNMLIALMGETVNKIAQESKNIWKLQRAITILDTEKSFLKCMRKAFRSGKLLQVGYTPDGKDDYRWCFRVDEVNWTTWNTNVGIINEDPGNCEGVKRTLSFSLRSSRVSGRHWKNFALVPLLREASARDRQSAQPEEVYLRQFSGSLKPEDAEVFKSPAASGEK
T4 sequence (O35433 whole entry): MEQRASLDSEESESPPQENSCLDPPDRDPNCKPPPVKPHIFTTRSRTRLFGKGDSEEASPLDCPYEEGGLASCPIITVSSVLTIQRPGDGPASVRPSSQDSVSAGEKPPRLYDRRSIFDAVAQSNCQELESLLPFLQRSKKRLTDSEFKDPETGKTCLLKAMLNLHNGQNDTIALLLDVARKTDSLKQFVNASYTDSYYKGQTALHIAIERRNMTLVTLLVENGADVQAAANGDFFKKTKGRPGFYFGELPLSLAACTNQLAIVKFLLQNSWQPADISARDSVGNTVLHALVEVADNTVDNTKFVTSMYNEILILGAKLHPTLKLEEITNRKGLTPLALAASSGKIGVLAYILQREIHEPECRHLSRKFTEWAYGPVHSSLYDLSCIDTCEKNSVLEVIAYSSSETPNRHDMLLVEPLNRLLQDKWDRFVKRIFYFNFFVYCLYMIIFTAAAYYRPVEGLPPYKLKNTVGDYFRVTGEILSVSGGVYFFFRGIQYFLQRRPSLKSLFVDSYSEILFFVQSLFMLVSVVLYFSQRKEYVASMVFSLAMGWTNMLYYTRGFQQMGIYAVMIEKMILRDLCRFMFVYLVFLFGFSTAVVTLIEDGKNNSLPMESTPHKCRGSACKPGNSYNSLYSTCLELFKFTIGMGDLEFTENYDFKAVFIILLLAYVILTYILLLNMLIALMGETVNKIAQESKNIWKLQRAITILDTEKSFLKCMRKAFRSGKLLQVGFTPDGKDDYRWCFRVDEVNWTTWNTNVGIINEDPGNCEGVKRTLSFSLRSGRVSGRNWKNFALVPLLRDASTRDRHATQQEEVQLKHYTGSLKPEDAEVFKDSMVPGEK

Usually inhibition stands for the share of the control response that was lost under treatment. In the case of `O=C(Nc1ccccc1)OCC1(COC(=O)Nc2ccccc2)CCSc2ccccc2C1=O` [Example Compound 2, Phenylcarbamic acid 4-(phenylcarbamoyloxymethyl)-5-oxo-2,3,4,5-tetrahydro-benzo[b]thiepin-4-ylmethyl ester], the inhibition at 10 µM turned out to be 42% on human CB1 receptor and 74.6% on human CB2 receptor.

In the case of `O=C(NC1CCCCC1)OCC1(COC(=O)NC2CCCCC2)CCCc2ccccc2C1=O` [Example Compound 8, Cyclohexylcarbamic acid 6-(cyclohexylcarbamoyloxymethyl)-5-oxo-6,7,8,9-tetrahydro-5H-benzocyclohepten-6-ylmethyl ester], the inhibition at 10 µM on human CB1 receptor came to 47%; on human CB2 receptor it was 76.2%.

With `O=C1c2ccccc2OCCC1(CO)COC(=S)Nc1cccc(C(F)(F)F)c1` (stereo not shown) [Example Compound 18, (3-Trifluoromethylphenyl)thiocarbamic acid O-(4-hydroxymethyl-5-oxo-2,3,4,5-tetrahydrobenzo[b]oxepin-4-ylmethyl)ester], the inhibition at 10 µM on vanilloid receptor (VR1) stood at 31.5%; in assay [1], 52.1%; at human CB2 receptor, 15.6%.
